According to paper PMC5512577, “PDE6δ-mediated sorting of INPP5E into the cilium is determined by cargo-carrier affinity” (Nature Communications, 2016):
Like-named read-outs stand apart in the source and are kept apart here. Peptide text beside a SMILES is read from it. * marks the point of attachment. FITC = O=C1OC2(c3ccc(O)cc3Oc3cc(O)ccc32)c2ccc(NC(=S)*)cc21; Farnesyl = CC(C)=CCC/C(C)=C/CC/C(C)=C/C*

Experiments:
PDE6δ [1] = assay: Stopped-flow fluorescence polarization, dissociation of peptides from PDE6δ with and without Arl2/Arl3·GppNHp; type: binding; details: 1 μM PDE6δ, 0.2 μM labelled peptide, 100-fold excess unlabelled peptide, 20 °C, ± s.d., n=4
Source text: Towards an explanation for the possible sorting mechanism that leaves some PDE6δ-cargo in the cell body but allows others to be enriched in the cilia we turned to the release activities of Arl2 and Arl3. […] While Arl2 is a non-ciliary protein, Arl3 localizes along the length of the cilium. Using fluorescence polarization, we measured the release of INPP5E and Rheb peptides from PDE6δ by the addition of Arl2 or Arl3 bound to the non-hydrolysable GTP analogue GppNHp. […] To compare the cargo release kinetics of Arl2·GppNHp and Arl3·GppNHp, we measured the dissociation rate constants of INPP5E and Rheb peptides from PDE6δ in the presence and absence of Arl3·GppNHp or Arl2·GppNHp, by adding a large excess of unlabelled peptide to silence the back reaction. […] The presence of Arl3·GppNHp or Arl2·GppNHp has a similar acceleration effect on the dissociation rate of Rheb peptide from PDE6δ (koff=27.2±0.7 and 15.3±0.3 s^−1, respectively, ±indicates s.d., n=4) (Fig. 2c,d).
Figure 2 INPP5E release from PDE6δ by Arl2·GppNHp and Arl3·GppNHp. (a) Fluorescence polarization measurements of 0.5 μM FITC-labelled Rheb peptide followed by addition of 0.5 μM PDE6δ and the addition of 5 μM Arl2·GppNHp or Arl3·GppNHp (arrow). (b) Fluorescence polarization measurements of 0.2 μM TAMRA-labelled INPP5E peptide followed by the addition of 0.2 μM PDE6δ (arrow) and 5 μM Arl2·GppNHp or Arl3·GppNHp (arrow). (c–f) Stopped-flow fluorescence polarization kinetic experiment where complexes of 1 μM PDE6δ with either 0.2 μM of FITC-labelled Rheb peptide (c,d) or TAMRA-labelled farnesylated INPP5E peptide (e,f) were mixed with 100-fold excess of unlabelled peptide and 10 μM of Arl2 (c,e) or Arl3 (d,f) as indicated.
(§1) All fluorescence polarization measurements were performed at 20 °C in a buffer containing 25 mM Tris-HCl (pH 7.5), 50 mM NaCl and 3 mM DTE. […]

[2] = tested on: PDE6δ/farnesylated peptide complex; assay: Fluorescence polarization release of farnesylated peptide from PDE6δ by Arl proteins; type: biochemical
Source text: Towards an explanation for the possible sorting mechanism that leaves some PDE6δ-cargo in the cell body but allows others to be enriched in the cilia we turned to the release activities of Arl2 and Arl3. […] While Arl2 is a non-ciliary protein, Arl3 localizes along the length of the cilium. Using fluorescence polarization, we measured the release of INPP5E and Rheb peptides from PDE6δ by the addition of Arl2 or Arl3 bound to the non-hydrolysable GTP analogue GppNHp. […] To compare the cargo release kinetics of Arl2·GppNHp and Arl3·GppNHp, we measured the dissociation rate constants of INPP5E and Rheb peptides from PDE6δ in the presence and absence of Arl3·GppNHp or Arl2·GppNHp, by adding a large excess of unlabelled peptide to silence the back reaction. […]
Figure 2 INPP5E release from PDE6δ by Arl2·GppNHp and Arl3·GppNHp. (a) Fluorescence polarization measurements of 0.5 μM FITC-labelled Rheb peptide followed by addition of 0.5 μM PDE6δ and the addition of 5 μM Arl2·GppNHp or Arl3·GppNHp (arrow). (b) Fluorescence polarization measurements of 0.2 μM TAMRA-labelled INPP5E peptide followed by the addition of 0.2 μM PDE6δ (arrow) and 5 μM Arl2·GppNHp or Arl3·GppNHp (arrow). […]
as §1
Arl3•GTP. Fluorescence polarization measurements of 0.2 µM TAMRA-labeled […]

PDE6δ [3] = assay: Stopped-flow fluorescence polarization kinetics of mantGppNHp-loaded Arl proteins with PDE6δ; type: binding; details: for association rate constant kon with PDE6δ: 0.2 μM mantGppNHp-loaded Arl protein, increasing PDE6δ; for association rate constant kon with PDE6δ / dissociation rate constant koff from PDE6δ: 20 °C; for association rate constant kon with PDE6δ / dissociation rate constant koff from PDE6δ / Kd: n=4; for dissociation rate constant koff from PDE6δ: 2 μM PDE6δ with 0.2 μM mantGppNHp-loaded Arl protein, 200-fold excess unlabelled Arl protein; for Kd: calculated from kinetic constants, ± s.d., read-out: equilibrium dissociation constant Kd with PDE6δ (Kd=koff/kon)
Procedure: Previously we have shown that the N-terminal helix of Arl3 is important to release myristoylated cargo from a complex with the shuttle factor UNC119 (ref. [30]). To find out whether the N-terminus of Arl3 and/or Arl2 has a similar if any role in the interaction with PDE6δ, fluorescence polarization measurements using full-length Arl3 (Arl3^fl) or an N-terminal truncated form (Arl3^ΔN) were performed. […] To investigate the role of the N-terminal helix of Arl3 in the release mechanism, we measured association and dissociation rate constants to determine the affinity of PDE6δ towards Arl2 and Arl3 in both full-length and N-terminal truncated forms. Association rate constants between the four proteins Arl3^fl, Arl3^ΔN, Arl2^fl and Arl2^ΔN are rather similar although association is almost twice as fast for full-length Arl3 as compared with Arl2 (Fig. 3a,b). […] The Kd values for Arl2^fl and Arl3^fl differ from previously determined values, likely because of the different techniques used.
Figure 3 Contribution of the N-terminal helix of Arl3 to the binding affinity with PDE6δ. (a) Stopped-flow fluorescence polarization kinetic measurements of the association of 0.2 μM mantGppNHp loaded Arl proteins with increasing concentrations of PDE6δ. The observed pseudo-first order rate constants (kobs) are plotted against PDE6δ concentration. (b) Bar charts of the association rate constants (kon) determined in a. (c,d) Stopped-flow fluorescence polarization kinetic experiments where complexes of 2 μM PDE6δ with 0.2 μM of full-length (Arl^fl) or N-terminally deleted (Arl^ΔN) mantGppNHp loaded Arl proteins as indicated were mixed with 200-fold excess of unlabelled Arl proteins to determine koff. (e) Bar charts of the dissociation rate constants (koff) from experiments in c,d. (f) Bar charts of the equilibrium dissociation constants (Kd) of complexes between PDE6δ and Arl proteins as determined from the kinetic constants in c,e. Error bars indicate s.d., n=4. TEXT PRINTED IN THE PICTURE: (b) Arl3^fl: kon (μM^-1s^-1): 5.97 | (b) Arl3^ΔN: kon (μM^-1s^-1): 4.25 | (b) Arl2^fl: kon (μM^-1s^-1): 2.25 | (b) Arl2^ΔN: kon (μM^-1s^-1): 3.09 | (e) Arl3^fl: koff (s^-1): 0.035 | (e) Arl3^ΔN: koff (s^-1): 0.92 | (e) Arl2^fl: koff (s^-1): 0.33 | (e) Arl2^ΔN: koff (s^-1): 0.98 | (f) Arl3^fl: kd (nM): 5.84 | (f) Arl3^ΔN: kd (nM): 217 | (f) Arl2^fl: kd (nM): 149 | (f) Arl2^ΔN: kd (nM): 319
All fluorescence polarization measurements were performed at 20 °C in a buffer containing 25 mM Tris-HCl (pH 7.5), 50 mM NaCl and 3 mM DTE. For the titration measurement, data were recorded with Fluoromax-4 spectrophotometer (HORIBA Jobin Yvon, Munich, Germany) with excitation and emission wavelengths at 530 and 580 nm for TAMRA-labelled INPP5E peptide and at 495 and 520 nm for fluorescein-labelled Rheb peptide. The kinetic measurements were monitored by a stopped-flow apparatus (Applied Photophysics) in the polarization mode using an excitation wavelength of 366 nm and filter with 420 nm cutoff for mantGppNHp bound Arl protein, excitation wavelength of 495 nm and filter with 520 nm cutoff for fluorescein-labelled Rheb peptide and excitation wavelength of 530 nm and filter with 570 nm cutoff for TAMRA-labelled INPP5E peptide. Data analysis was done with GraFit 5.0 program (Erithracus Software). Concentrations used for each experiment are indicated in the corresponding figure legend.

Row | Kd (PDE6δ [3]; listed as Arl3^ΔN) [nM] | Kd (PDE6δ [3]) [nM] | Compound | koff from PDE6δ in presence of Arl2·GppNHp (PDE6δ [1]; 10 μM Arl2·GppNHp) [s⁻¹] | koff from PDE6δ in presence of Arl3·GppNHp (PDE6δ [1]; 10 μM Arl3·GppNHp) [s⁻¹] | intrinsic dissociation rate koff from PDE6δ (PDE6δ [1]; absence of Arl2/3) [s⁻¹] | release of peptide from PDE6δ by Arl2·GppNHp or Arl3·GppNHp ([2]; 0.5 μM FITC-Rheb peptide + 0.5 μM PDE6δ or 0.2 μM TAMRA-INPP5E peptide + 0.2 μM PDE6δ, 5 μM Arl·GppNHp) | release of INPP5E peptide from PDE6δ by Arl3 form ([2]; 0.2 μM TAMRA-labelled INPP5E peptide, 0.2 μM PDE6δ, 5 μM Arl3fl or Arl3ΔN) | association rate constant kon with PDE6δ (PDE6δ [3]) [M⁻¹ s⁻¹] | association rate constant kon with PDE6δ (PDE6δ [3]; listed as Arl3^ΔN) [M⁻¹ s⁻¹] | dissociation rate constant koff from PDE6δ (PDE6δ [3]) [s⁻¹] | dissociation rate constant koff from PDE6δ (PDE6δ [3]; listed as Arl3^ΔN) [s⁻¹] | increase of affinity to PDE6δ by the N-terminal helix (PDE6δ [3]; Arl3 full-length versus ΔN) [fold]
1 | – | – | COC(=O)[C@H](CSC/C=C(\C)CC/C=C(\C)CCC=C(C)C)NC(=O)[C@H](CO)NC(=O)[C@H](CO)NC(=O)[C@H](CCCCN)NC(=O)CNC(=O)[C@H](CCC(N)=O)NC(=O)[C@H](CO)NC(=S)Nc1ccc2c(c1)C(=O)OC21c2ccc(O)cc2Oc2cc(O)ccc21 [Rheb peptide] ({FITC}-SQGKSSC(Farnesyl)-OMe; N-terminus and C-terminus assumed) | 15.3 ± 0.3 | 27.2 ± 0.7 | 0.95 ± 0.004 | can be released by both Arl2·GppNHp and Arl3·GppNHp | – | – | – | – | – | –
2 | 217 ± 4.3 | 5.84 | Arl3^fl: full-length Arl3, GppNHp or mantGppNHp loaded | – | – | – | – | unable to release the INPP5E peptide | 5.97e+06 | 4.25e+06 | 0.035 | 0.92 | 37
